According to publication PMC10507085, “Pharmacological inhibition of TBK1/IKKε blunts immunopathology in a murine model of SARS-CoV-2 infection” (Nature Communications, 2023):

Legend:
Assay in all cases: biochemical
Set-up in all cases: KINOMEscan competition binding, DNA-tagged kinase against immobilised ligand, qPCR read-out
Details in all cases: read-out: Percent Control
CAMK1D = CAMK1D (Homo sapiens, UniProt Q8IU85)
CDK13 = CDK13 (Homo sapiens, UniProt Q14004)
CSNK1A1L = CSNK1A1L (Homo sapiens, UniProt Q8N752)
EPHA5 = EPHA5 (Homo sapiens, UniProt P54756)
ITK = ITK (Homo sapiens, UniProt Q08881)
LIMK1 = LIMK1 (Homo sapiens, UniProt P53667)
LIMK1, sequence (P53667 whole entry): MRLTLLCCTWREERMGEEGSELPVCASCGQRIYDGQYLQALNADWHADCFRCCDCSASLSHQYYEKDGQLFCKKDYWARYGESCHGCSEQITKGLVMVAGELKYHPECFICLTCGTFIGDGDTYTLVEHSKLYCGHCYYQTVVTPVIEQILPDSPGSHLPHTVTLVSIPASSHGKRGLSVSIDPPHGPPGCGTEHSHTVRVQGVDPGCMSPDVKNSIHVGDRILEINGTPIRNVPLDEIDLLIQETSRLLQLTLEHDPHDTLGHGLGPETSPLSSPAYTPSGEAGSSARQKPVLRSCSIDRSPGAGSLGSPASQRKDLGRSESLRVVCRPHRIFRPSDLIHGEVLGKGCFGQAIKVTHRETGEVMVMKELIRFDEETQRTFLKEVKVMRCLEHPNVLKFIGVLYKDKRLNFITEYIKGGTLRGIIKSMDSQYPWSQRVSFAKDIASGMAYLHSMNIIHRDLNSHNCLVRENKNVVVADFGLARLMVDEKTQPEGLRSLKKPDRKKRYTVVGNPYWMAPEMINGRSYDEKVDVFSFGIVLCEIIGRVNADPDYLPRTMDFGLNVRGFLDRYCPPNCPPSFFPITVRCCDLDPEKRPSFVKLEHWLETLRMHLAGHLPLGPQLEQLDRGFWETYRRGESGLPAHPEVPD

LRRK2 = LRRK2 (Homo sapiens, UniProt Q5S007)
MAP3K12 = MAP3K12 (Homo sapiens, UniProt Q12852)
MAP3K12, sequence (Q12852 whole entry): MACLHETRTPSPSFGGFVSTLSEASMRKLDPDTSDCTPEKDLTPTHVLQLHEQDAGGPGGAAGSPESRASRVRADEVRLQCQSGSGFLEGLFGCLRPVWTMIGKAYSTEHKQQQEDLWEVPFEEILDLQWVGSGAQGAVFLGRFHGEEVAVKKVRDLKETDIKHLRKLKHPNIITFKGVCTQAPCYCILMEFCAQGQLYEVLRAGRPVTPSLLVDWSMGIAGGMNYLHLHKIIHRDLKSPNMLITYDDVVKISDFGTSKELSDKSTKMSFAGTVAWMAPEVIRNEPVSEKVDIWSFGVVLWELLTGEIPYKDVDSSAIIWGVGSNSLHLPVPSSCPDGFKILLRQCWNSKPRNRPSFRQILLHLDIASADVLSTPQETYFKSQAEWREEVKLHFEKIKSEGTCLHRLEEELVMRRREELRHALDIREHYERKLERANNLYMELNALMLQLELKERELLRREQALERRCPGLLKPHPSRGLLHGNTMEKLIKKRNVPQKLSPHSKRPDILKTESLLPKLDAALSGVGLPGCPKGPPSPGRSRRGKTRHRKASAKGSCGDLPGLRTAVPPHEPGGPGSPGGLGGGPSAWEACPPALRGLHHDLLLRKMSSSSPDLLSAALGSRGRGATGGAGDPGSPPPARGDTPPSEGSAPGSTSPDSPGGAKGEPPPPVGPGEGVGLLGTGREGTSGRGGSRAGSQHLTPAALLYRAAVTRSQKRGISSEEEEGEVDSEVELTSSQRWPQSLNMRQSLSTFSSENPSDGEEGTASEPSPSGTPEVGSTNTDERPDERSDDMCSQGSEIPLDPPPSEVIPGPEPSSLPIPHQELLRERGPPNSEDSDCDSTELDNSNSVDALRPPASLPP

MAPKAPK2 = MAPKAPK2 (Homo sapiens, UniProt P49137)
MATK = MATK (Homo sapiens, UniProt P42679)
MYLK2 = MYLK2 (Homo sapiens, UniProt Q9H1R3)
MYLK2, sequence (Q9H1R3 whole entry): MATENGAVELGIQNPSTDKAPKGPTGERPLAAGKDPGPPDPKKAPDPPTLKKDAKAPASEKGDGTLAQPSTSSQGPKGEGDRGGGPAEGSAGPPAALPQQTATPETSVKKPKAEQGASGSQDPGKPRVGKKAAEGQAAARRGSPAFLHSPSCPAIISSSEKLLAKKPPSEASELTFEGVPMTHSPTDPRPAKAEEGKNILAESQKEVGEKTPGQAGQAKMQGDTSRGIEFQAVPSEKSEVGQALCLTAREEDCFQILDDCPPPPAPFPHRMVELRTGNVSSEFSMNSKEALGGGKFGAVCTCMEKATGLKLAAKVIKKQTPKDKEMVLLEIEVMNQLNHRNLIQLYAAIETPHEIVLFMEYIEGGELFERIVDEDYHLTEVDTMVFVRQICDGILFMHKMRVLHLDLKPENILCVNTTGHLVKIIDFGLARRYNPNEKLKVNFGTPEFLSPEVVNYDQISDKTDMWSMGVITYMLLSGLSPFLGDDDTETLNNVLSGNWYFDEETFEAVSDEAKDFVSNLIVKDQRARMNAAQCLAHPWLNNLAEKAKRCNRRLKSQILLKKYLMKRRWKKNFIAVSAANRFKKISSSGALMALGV

PAK1 = PAK1 (Homo sapiens, UniProt Q13153)
PAK1, sequence (Q13153 whole entry): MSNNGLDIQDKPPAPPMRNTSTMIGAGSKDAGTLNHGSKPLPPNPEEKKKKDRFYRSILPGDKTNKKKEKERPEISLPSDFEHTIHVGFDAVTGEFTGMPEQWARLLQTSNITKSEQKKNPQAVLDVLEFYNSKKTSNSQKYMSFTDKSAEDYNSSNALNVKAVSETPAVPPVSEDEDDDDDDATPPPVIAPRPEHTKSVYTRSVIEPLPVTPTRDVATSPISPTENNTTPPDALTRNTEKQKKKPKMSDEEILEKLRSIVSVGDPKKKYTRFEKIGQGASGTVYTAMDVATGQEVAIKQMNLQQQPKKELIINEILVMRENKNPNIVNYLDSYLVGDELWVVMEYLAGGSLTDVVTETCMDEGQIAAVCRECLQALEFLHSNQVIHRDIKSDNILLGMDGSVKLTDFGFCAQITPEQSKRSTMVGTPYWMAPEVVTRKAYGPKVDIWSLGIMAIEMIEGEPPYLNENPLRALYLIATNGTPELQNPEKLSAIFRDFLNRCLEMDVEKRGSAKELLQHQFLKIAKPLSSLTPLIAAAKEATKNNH

PI4KB = PI4KB (Homo sapiens, UniProt Q9UBF8)
PRKD3 = PRKD3 (Homo sapiens, UniProt O94806)
[1] = target: T1, RPS6KA4(Kin.Dom.2-C-terminal) (Homo sapiens, UniProt O75676)
T1 construct: Kin.Dom.2 C-terminal
T1 sequence (O75676 whole entry): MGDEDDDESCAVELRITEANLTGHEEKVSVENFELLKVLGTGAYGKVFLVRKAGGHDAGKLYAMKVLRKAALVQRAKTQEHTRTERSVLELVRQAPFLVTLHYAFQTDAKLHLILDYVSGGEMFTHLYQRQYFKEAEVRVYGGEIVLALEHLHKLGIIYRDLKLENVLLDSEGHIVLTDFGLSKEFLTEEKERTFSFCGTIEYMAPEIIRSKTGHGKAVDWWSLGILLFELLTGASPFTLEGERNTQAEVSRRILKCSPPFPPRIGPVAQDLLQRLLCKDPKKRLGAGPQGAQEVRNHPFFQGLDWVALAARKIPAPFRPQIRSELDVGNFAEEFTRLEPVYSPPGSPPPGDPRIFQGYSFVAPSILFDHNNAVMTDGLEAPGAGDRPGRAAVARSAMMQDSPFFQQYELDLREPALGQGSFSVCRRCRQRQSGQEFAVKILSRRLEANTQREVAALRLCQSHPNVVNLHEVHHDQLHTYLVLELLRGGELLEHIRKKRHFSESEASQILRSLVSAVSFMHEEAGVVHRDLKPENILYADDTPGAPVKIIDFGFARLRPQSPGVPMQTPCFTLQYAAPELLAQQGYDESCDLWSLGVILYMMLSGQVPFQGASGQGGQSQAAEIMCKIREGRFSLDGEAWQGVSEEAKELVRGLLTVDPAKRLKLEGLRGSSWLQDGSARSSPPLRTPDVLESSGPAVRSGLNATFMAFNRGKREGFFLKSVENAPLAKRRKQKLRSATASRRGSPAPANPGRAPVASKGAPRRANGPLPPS

STK17B = STK17B (Homo sapiens, UniProt O94768)
SYK = SYK (Homo sapiens, UniProt P43405)
[2] = target: T2, TYK2(JH1domain-catalytic) (Homo sapiens, UniProt P29597)
T2 construct: JH1 domain catalytic
T2 sequence (P29597 whole entry, the tested form may be a part): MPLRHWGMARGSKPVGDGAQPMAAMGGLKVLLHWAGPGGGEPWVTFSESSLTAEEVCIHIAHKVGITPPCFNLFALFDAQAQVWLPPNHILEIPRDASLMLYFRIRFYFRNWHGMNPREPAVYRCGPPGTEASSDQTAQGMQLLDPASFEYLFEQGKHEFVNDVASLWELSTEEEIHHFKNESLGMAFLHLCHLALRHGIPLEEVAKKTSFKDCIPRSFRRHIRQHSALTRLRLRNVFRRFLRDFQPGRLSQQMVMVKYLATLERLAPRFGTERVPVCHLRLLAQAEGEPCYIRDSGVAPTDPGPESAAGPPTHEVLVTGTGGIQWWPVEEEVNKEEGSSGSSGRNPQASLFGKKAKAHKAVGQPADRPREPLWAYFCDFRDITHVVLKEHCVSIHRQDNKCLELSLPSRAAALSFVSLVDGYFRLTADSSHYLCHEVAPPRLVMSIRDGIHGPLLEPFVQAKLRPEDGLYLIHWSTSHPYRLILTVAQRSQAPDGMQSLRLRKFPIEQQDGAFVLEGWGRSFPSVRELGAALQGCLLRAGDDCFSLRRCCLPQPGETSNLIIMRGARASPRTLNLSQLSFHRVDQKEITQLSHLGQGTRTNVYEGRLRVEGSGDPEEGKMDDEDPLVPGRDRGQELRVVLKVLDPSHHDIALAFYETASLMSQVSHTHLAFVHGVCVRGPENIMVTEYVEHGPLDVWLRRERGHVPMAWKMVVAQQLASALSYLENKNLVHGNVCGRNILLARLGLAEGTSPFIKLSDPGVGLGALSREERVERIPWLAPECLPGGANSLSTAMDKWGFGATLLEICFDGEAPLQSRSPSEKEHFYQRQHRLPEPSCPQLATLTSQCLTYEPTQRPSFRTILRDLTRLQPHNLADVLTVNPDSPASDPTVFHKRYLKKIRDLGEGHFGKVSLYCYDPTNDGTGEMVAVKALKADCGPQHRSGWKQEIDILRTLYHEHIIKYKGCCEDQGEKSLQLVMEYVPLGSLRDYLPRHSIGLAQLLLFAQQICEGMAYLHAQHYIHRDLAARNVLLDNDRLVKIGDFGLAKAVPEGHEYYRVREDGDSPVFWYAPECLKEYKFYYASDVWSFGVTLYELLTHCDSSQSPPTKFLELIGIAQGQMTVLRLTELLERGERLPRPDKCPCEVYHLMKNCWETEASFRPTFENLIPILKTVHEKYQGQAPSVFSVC

ULK3 = ULK3 (Homo sapiens, UniProt Q6PHR2)
ULK3, sequence (Q6PHR2 whole entry): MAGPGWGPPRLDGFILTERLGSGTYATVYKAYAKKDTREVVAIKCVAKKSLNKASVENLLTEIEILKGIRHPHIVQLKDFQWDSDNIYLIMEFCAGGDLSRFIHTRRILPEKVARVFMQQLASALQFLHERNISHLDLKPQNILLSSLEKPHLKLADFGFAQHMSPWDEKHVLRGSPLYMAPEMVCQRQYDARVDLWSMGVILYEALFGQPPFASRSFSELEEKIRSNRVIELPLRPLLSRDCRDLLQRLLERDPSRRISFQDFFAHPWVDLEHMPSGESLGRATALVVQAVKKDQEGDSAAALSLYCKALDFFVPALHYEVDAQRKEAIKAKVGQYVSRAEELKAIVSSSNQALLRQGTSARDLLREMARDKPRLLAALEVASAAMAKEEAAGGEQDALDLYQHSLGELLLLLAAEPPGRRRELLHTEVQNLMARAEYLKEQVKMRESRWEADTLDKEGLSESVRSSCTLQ

WEE1 = WEE1 (Homo sapiens, UniProt P30291)

Oc1ccc(C2=Cc3ccc(O)cc3OC2)cc1 [compound 1, idronoxil] gave a remaining binding at 10 µM (CAMK1D) of 100%, a remaining binding at 10 µM (CDK13) of 100% and a remaining binding at 10 µM (CSNK1A1L) of 96%. For the same compound, the remaining binding at 10 µM (EPHA5) was 97%, the remaining binding at 10 µM (ITK) was 97% and the remaining binding at 10 µM (LIMK1) was 89%. The remaining binding at 10 µM (LRRK2) was 90%, the remaining binding at 10 µM (MAP3K12) was 75% and the remaining binding at 10 µM (MAPKAPK2) was 65%. It also gave a remaining binding at 10 µM (MATK) of 61%, a remaining binding at 10 µM (MYLK2) of 80% and a remaining binding at 10 µM (PAK1) of 60%. The remaining binding at 10 µM (PI4KB) was 63%, the remaining binding at 10 µM (PRKD3) was 85% and the remaining binding at 10 µM [1] was 53%. For the same compound, the remaining binding at 10 µM (STK17B) was 40%, the remaining binding at 10 µM (SYK) was 62% and the remaining binding at 10 µM [2] was 74%. For the same compound, the remaining binding at 10 µM (ULK3) was 78% and the remaining binding at 10 µM (WEE1) was 84%.
